Consider 16 molecules from PubChem BioAssay (NCI).

Test systems include 786-0 renal; CAKI-1 renal; COLO 205 colon; HOP-62 NSCLC; K-562 leukemia; NCI-H460 lung; PC-3 prostate; RPMI-8226 leukemia; SF-268 CNS; SF-539 CNS; SK-OV-3 ovarian; SNB-19 CNS; U251 CNS; OVCAR-3 ovarian; OVCAR-5 ovarian; SN12C renal; HS 578T breast.
Holding throughout (experiment): inhibition of tumour cell growth, NCI panel, 48 h

Molecules are shown by their SMILES.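 Cultured in 96-well plates, cells were exposed to test compound for 48 hours across five concentrations. TGI: concentration producing complete growth inhibition.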

In the case of `OC(c1ccc(F)cc1)C(F)(F)c1nc2ccccc2o1` (stereo not given), the TGI in the assay with 786-0 renal is > 100 µM; with CAKI-1 renal, > 100 µM; in the assay with COLO 205 colon, > 100 µM; in the assay with HOP-62 NSCLC it was > 100 µM; in the assay with K-562 leukemia, 82.3 µM; with NCI-H460 lung, > 100 µM. For the same molecule, the TGI in the assay with PC-3 prostate, in the assay with RPMI-8226 leukemia, in the assay with SF-268 CNS, in the assay on SF-539 CNS, with SK-OV-3 ovarian and in the assay with SNB-19 CNS was > 100 µM in each case. Besides, the TGI with U251 CNS was > 100 µM.

`N#CC(C(=O)c1cccnc1Cl)c1nc2cc(C(F)(F)F)ccc2s1` (stereo not given): the TGI with 786-0 renal, with CAKI-1 renal, in the assay with COLO 205 colon, in the assay on HOP-62 NSCLC, in the assay on K-562 leukemia and in the assay with NCI-H460 lung was > 100 µM each time. For the same molecule, the TGI with OVCAR-3 ovarian, in the assay with OVCAR-5 ovarian, in the assay with RPMI-8226 leukemia, in the assay on SF-268 CNS, in the assay on SF-539 CNS and in the assay on SK-OV-3 ovarian was > 100 µM throughout. Also, the TGI with SN12C renal, in the assay with SNB-19 CNS and in the assay with U251 CNS was > 100 µM throughout.

Regarding `O=C(c1ccccc1)c1c(CC(O)c2ccccn2)n(C(=O)c2ccccc2)c2ccccc12` (stereo not given), the TGI in the assay with 786-0 renal was > 100 µM; in the assay with CAKI-1 renal, > 100 µM; in the assay on COLO 205 colon it was 50.5 µM; with HOP-62 NSCLC it was 38.2 µM; in the assay on K-562 leukemia it was > 100 µM; in the assay on NCI-H460 lung, 57 µM. For the same molecule, the TGI with OVCAR-3 ovarian was 68.4 µM; with OVCAR-5 ovarian it was 52.7 µM; in the assay on RPMI-8226 leukemia, 56 µM; in the assay with SF-268 CNS it was > 100 µM; with SF-539 CNS, 31.5 µM; in the assay with SNB-19 CNS, > 100 µM. This molecule also had a TGI in the assay with U251 CNS of 58 µM.

`COc1ccc(C2=C(Cl)c3cc(OC)c(OC)cc3C2OC)cc1OC` (stereo not given): the TGI with 786-0 renal is > 100 µM; in the assay with CAKI-1 renal, > 100 µM; with COLO 205 colon, > 100 µM; in the assay with HOP-62 NSCLC it was > 100 µM; with K-562 leukemia it was 52.7 µM; in the assay on NCI-H460 lung, > 100 µM. For the same molecule, the TGI with OVCAR-5 ovarian, in the assay on RPMI-8226 leukemia, in the assay with SF-268 CNS, in the assay on SF-539 CNS, with SN12C renal and in the assay with SNB-19 CNS was > 100 µM in each case.

Consider `S=c1[nH]nc(CNc2ccc(-c3n[nH]c(=S)n3-c3ccc(Cl)cc3)cc2)n1-c1ccc(Cl)cc1`, for which the TGI in the assay with 786-0 renal is 70 µM; in the assay on CAKI-1 renal, 40.7 µM; in the assay on COLO 205 colon, 38.9 µM; in the assay on HOP-62 NSCLC, 36.6 µM; in the assay on K-562 leukemia it was > 100 µM; with NCI-H460 lung, > 100 µM. Also, the TGI with OVCAR-5 ovarian was 46.4 µM; in the assay with PC-3 prostate, > 100 µM; in the assay on RPMI-8226 leukemia, 78 µM; in the assay on SF-268 CNS it was > 100 µM; with SK-OV-3 ovarian it was > 100 µM; in the assay with SN12C renal, 82.8 µM. In addition, the TGI in the assay with SNB-19 CNS and in the assay on U251 CNS was > 100 µM in each case.

For the molecule `CCN(CC)C(=O)Cc1c(C(=O)N(CC)CC)c(=O)nc2sccn12`, the TGI with 786-0 renal, in the assay on COLO 205 colon, in the assay with HOP-62 NSCLC, in the assay on K-562 leukemia, in the assay with NCI-H460 lung and in the assay on OVCAR-3 ovarian was > 100 µM throughout. Moreover, the TGI in the assay on RPMI-8226 leukemia, with SF-268 CNS, with SF-539 CNS, in the assay with SK-OV-3 ovarian, in the assay on SN12C renal and in the assay on SNB-19 CNS was > 100 µM throughout. Further, in the assay on U251 CNS, the TGI is > 100 µM.

With `CCN(CC)c1cccc2c1/C(=N/O)CCCC2`, the TGI with 786-0 renal, with COLO 205 colon, in the assay with HOP-62 NSCLC, in the assay on K-562 leukemia, in the assay with NCI-H460 lung and in the assay with RPMI-8226 leukemia was > 100 µM in each case. The TGI in the assay on SF-268 CNS, in the assay on SK-OV-3 ovarian, in the assay with SN12C renal, in the assay on SNB-19 CNS and in the assay with U251 CNS was > 100 µM throughout.

`CCOC(=O)c1c(N)n(-c2ccccc2)c(=O)n(-c2ccccc2)c1=O`: the TGI in the assay on 786-0 renal, with COLO 205 colon, with HS 578T breast, with K-562 leukemia, in the assay with NCI-H460 lung and in the assay on OVCAR-3 ovarian was > 100 µM each time. Moreover, the TGI with OVCAR-5 ovarian, in the assay with RPMI-8226 leukemia, in the assay on SF-268 CNS, in the assay with SN12C renal, in the assay with SNB-19 CNS and in the assay on U251 CNS was > 100 µM throughout.

Regarding `c1ccc([P+](CCSCCSCC[P+](c2ccccc2)(c2ccccc2)c2ccccc2)(c2ccccc2)c2ccccc2)cc1`, the TGI in the assay with 786-0 renal, in the assay with COLO 205 colon, in the assay with HOP-62 NSCLC, in the assay with HS 578T breast, in the assay with K-562 leukemia and with NCI-H460 lung was > 100 µM each time. Besides, the TGI with OVCAR-3 ovarian, in the assay on OVCAR-5 ovarian, with SF-268 CNS, in the assay with SF-539 CNS, in the assay with SK-OV-3 ovarian and in the assay on SN12C renal was > 100 µM each time. The TGI in the assay on SNB-19 CNS and with U251 CNS was > 100 µM throughout.

For the molecule `COC(=O)C1CCc2c1c(=O)n1c([nH]c3ccccc31)c2C#N` (stereo not given), the TGI in the assay on 786-0 renal, with CAKI-1 renal, in the assay with COLO 205 colon, in the assay with HOP-62 NSCLC, in the assay with K-562 leukemia and in the assay with NCI-H460 lung was > 100 µM each time. Also, the TGI with OVCAR-3 ovarian, in the assay with OVCAR-5 ovarian, with RPMI-8226 leukemia, with SF-268 CNS, with SF-539 CNS and in the assay on SK-OV-3 ovarian was > 100 µM throughout. Moreover, the TGI in the assay on SNB-19 CNS and in the assay on U251 CNS was > 100 µM in each case.

Take `CC(C)OP(=O)(OC(C)C)/C(Cl)=N/Nc1ccc([N+](=O)[O-])cc1`: the TGI with 786-0 renal, in the assay on CAKI-1 renal, in the assay on COLO 205 colon, in the assay on HOP-62 NSCLC, in the assay on K-562 leukemia and in the assay with NCI-H460 lung was > 100 µM each time. In addition, the TGI in the assay on OVCAR-3 ovarian, in the assay with OVCAR-5 ovarian, in the assay on RPMI-8226 leukemia, in the assay on SF-268 CNS, in the assay on SF-539 CNS and with SN12C renal was > 100 µM each time. The TGI with SNB-19 CNS and in the assay with U251 CNS was > 100 µM throughout.

Take `Nc1nc2c3nc(Nc4ccccc4)sc3nc(=S)n2c2sc(Nc3ccccc3)nc12`: the TGI with 786-0 renal was > 100 µM; in the assay with COLO 205 colon, > 100 µM; in the assay on HOP-62 NSCLC it was > 100 µM; with K-562 leukemia, > 100 µM; in the assay with SF-268 CNS it was 56.5 µM; with SF-539 CNS it was > 100 µM. Moreover, the TGI in the assay with SK-OV-3 ovarian, in the assay with SN12C renal, in the assay with SNB-19 CNS and in the assay on U251 CNS was > 100 µM each time.

In the case of `COP(=O)(OC)C(=O)N1N(c2ccc([N+](=O)[O-])cc2)C(=O)C(C)NC1(NNc1ccc([N+](=O)[O-])cc1)P(=O)(OC)OC` (stereo not given), the TGI with 786-0 renal, with CAKI-1 renal, in the assay on COLO 205 colon, in the assay with HOP-62 NSCLC, in the assay with K-562 leukemia and with NCI-H460 lung was > 100 µM in each case. Further, the TGI with OVCAR-3 ovarian, in the assay with OVCAR-5 ovarian, in the assay on RPMI-8226 leukemia, in the assay on SF-268 CNS, in the assay with SF-539 CNS and with SN12C renal was > 100 µM in each case. In addition, the TGI in the assay with SNB-19 CNS and with U251 CNS was > 100 µM in each case.

Regarding `Cc1nc(N)c(N2CCN(C(=O)O)CC2)c(=O)[nH]1`, the TGI with 786-0 renal, in the assay on COLO 205 colon, in the assay with HOP-62 NSCLC, with HS 578T breast, in the assay with K-562 leukemia and with NCI-H460 lung was > 100 µM each time. For the same molecule, the TGI in the assay on OVCAR-3 ovarian, in the assay on OVCAR-5 ovarian, with PC-3 prostate, in the assay with RPMI-8226 leukemia, with SF-268 CNS and in the assay on SF-539 CNS was > 100 µM in each case. Also, the TGI in the assay with SN12C renal, in the assay with SNB-19 CNS and in the assay with U251 CNS was > 100 µM in each case.

`CCc1ccccc1N=NC(=O)NNc1ccccc1CC`: the TGI with 786-0 renal was found to be 31.6 µM; with CAKI-1 renal it was 95.2 µM; with HOP-62 NSCLC it was 29.4 µM; with K-562 leukemia, 68.5 µM; in the assay with NCI-H460 lung, 34.5 µM; in the assay on OVCAR-3 ovarian, 33.2 µM. The TGI with OVCAR-5 ovarian was determined as 29.4 µM; in the assay on PC-3 prostate it was 37.5 µM; in the assay on RPMI-8226 leukemia, 77.3 µM; in the assay with SF-268 CNS it was 35.4 µM; with SN12C renal, 35.7 µM; with SNB-19 CNS, 95 µM. In addition, the TGI in the assay with U251 CNS is 29.6 µM.

Take `COC(=O)CC(NC(=O)OCc1ccccc1)C(C(C)=O)C(=O)OCc1ccccc1` (stereo not given): the TGI with 786-0 renal, with CAKI-1 renal, in the assay with COLO 205 colon, with K-562 leukemia, in the assay with NCI-H460 lung and in the assay on OVCAR-3 ovarian was > 31.6 µM in each case. Moreover, the TGI in the assay with OVCAR-5 ovarian is > 100 µM; in the assay with RPMI-8226 leukemia, > 31.6 µM; in the assay with SF-268 CNS it was > 31.6 µM; in the assay with SF-539 CNS, > 31.6 µM; in the assay on SK-OV-3 ovarian, > 31.6 µM; in the assay on SN12C renal it was > 31.6 µM. For the same molecule, the TGI in the assay on U251 CNS was > 31.6 µM.
